Like-named read-outs stand apart in the source and are kept apart here.
Columns and labels:
diabetic rats = settings: treatment of diabetic rats; cited from earlier work
[1] = system: diabetic (STZ) and nondiabetic male Wistar rats; settings: for Renal clearance Cu / Renal clearance Fe / Serum Cu / Serum Fe: trientine; for Renal clearance Cu / Renal clearance Fe: final hour of experiment; for Serum Cu / Serum Fe: terminal blood sample
Protocol: (§1) Following surgery and a 20 min stabilization period, the experimental protocol was started. Trientine was administered intravenously over 60 s in hourly doses of increasing concentration (0.1, 1.0, 10 and 100 mg·kg^−1 in 75 μl saline followed by 125 μl saline flush). Control animals received an equivalent volume of saline. Urine was collected in 15 min aliquots throughout the experiment in pre-weighed polyethylene epindorph tubes. At the end of the experiment a terminal blood sample was taken by cardiac puncture and the separated serum stored at −80° C. until future analysis. Hearts were removed through a rapid mid-sternal thoracotomy and processed as described below.
Serum: Terminal blood samples were centrifuged and serum treated and stored as per urine until analysis. From the trace metal content of serum from the terminal blood sample and urine collected over the final hour of the experiment, renal clearance was calculated using the following equation: renal clearance of trace metal=(a) the concentration of metal in urine (μg·μl^−1) times (b) the rate of urine flow (μl·min^−1), divided by (c) the concentration of metal in serum (μg·μl^−1)

[2] = system: diabetic (STZ) and nondiabetic male Wistar rats
From the text: (§2) Nondiabetic animals received an equivalent volume of saline.
(§3) All animals were fasted overnight prior to surgery but continued to have ad libitum access to deionized water. […] The femoral artery and vein were cannulated with a solid-state blood pressure transducer (Mikrotip™ 1.4F, Millar Instruments, Texas, USA) and a saline filled PE 50 catheter respectively. The ureters were exposed via a midline abdominal incision, cannulated using polyethylene catheters (external diameter 0.9 mm, internal diameter 0.5 mm) and the wound sutured closed. The trachea was cannulated and the animal ventilated at 70-80 breaths·min^−1 with air supplemented with O2 (Pressure Controlled Ventilator, Kent Scientific, Connecticut, USA). The respiratory rate and end-tidal pressure (10-15 cm H2O) were adjusted to maintain end-tidal CO2 at 35-40 mm Hg (SC-300 CO2 Monitor, Pryon Corporation, Wisconsin, USA). Body temperature was maintained at 37° C. throughout surgery and the experiment by a heating pad. Estimated fluid loss was replaced with intravenous administration of 154 mmol·l^−1 NaCl solution at a rate of 5 ml·kg^−1·h^−1.
as §1
Instrumentation: A Perkin Elmer (PE) Model 3100 Atomic Absorption Spectrophotometer equipped with a PE HGA-600 Graphite Furnace and PE AS-60 Furnace Autosampler was used for Cu and Fe determinations in urine. Deuterium background correction was employed. A Cu or Fe hollow-cathode lamp (Perkin Elmer Corporation) was used and operated at either 10 W (Cu) or 15 W (Fe). The 324.8 nm atomic line was used for Cu and the 248.3 nm atomic line for Fe. The slit width for both Cu and Fe was 0.7 nm. Pyrolytically coated graphite tubes were used for all analyses. The injection volume was 20 μL. A typical graphite furnace temperature program is shown below.
Urine: Urine was collected in pre-weighed 1.5 ml micro test tubes (eppendorf). After reweighing, the urine specimens were centrifuged and the supernatant diluted 25:1 with 0.02 M 69% Aristar grade HNO3. The sample was stored at 4° C. prior to GF-AAS analysis. If it was necessary to store a sample for a period in excess of 2 weeks, it was frozen and kept at −20° C.
Statistical analyses were as follows: All values are expressed as mean±SEM and P values <0.05 were considered statistically significant. Student's unpaired t-test was initially used to test for weight and glucose differences between the diabetic and control groups.

[3] = system: STZ diabetic and normal Wistar rats; settings: for Heart weight / Heart weight (g)/BW (g) / Left Ventricular wall thickness / Left Ventricular wall thickness per BW: mean ± SD
[4] = system: diabetic (STZ) and nondiabetic male Wistar rats; remark: listed apart in the source
From the text: as §2, §3, §1
Mean arterial pressure (MAP), heart rate (HR, derived from the MAP waveform) oxygen saturation (Nonin 8600V Pulse Oximeter, Nonin Medical Inc., Minnesota, USA) and core body temperature, were all continuously monitored throughout the experiment using a PowerLab/16s data acquisition module (AD Instruments, Australia).

[5] = system: diabetic (STZ) and nondiabetic male Wistar rats; settings: for Cu content of heart tissue / Fe content of heart tissue: trientine treated
Protocol: as §1
Cu, Fe and Zn in tissue digests were also determined at Hill Laboratories (Hamilton, New Zealand) using either a PE Sciex Elan-6000 or PE Sciex Elan-6100 DRC ICP-MS.
Heart: Following removal from the animal, the heart was cleaned of excess tissue, rinsed in buffer to remove excess blood, blotted dry and a wet ventricular weight recorded. Using titanium instruments a segment of left ventricular muscle was dissected and placed in a pre-weighed 5.0 ml polystyrene tube. The sample was freeze-dried overnight to constant weight before 0.45 ml of 69% Aristar grade HNO3 was added. The sample tube was heated in a water bath at 65° C. for 60 minutes. The sample was brought to 4.5 ml with Milli-Q H2O. The resulting solution was diluted 2:1 in order to reduce the HNO3 concentration below the maximum permitted for ICP-MS analysis.

[6] = system: STZ diabetic and normal Wistar rats
Protocol: On the last day of the experiment, animals were anesthetized (5% halothane and 2 L·min^−1 O2), and heparin (500 IU·kg^−1) (Weddel Pharmaceutical Ltd., London) administered intravenously via tail vein. […] Hearts were then placed in the isolated perfused working heart apparatus.
The aortic root of the heart was immediately ligated to the aortic cannula of the perfusion apparatus. Retrograde (Langendorff) perfusion at a hydrostatic pressure of 100 cm H2O and at 37° C. was established and continued for 5 min while cannulation of the left atrium via the pulmonary vein was completed. The non-working (Langendorff) preparation was then converted to the working heart model by switching the supply of perfusate buffer from the aorta to the left atrium at a filling pressure of 10 cm H2O. […] The perfusion solution was Krebs-Henseleit bicarbonate buffer (mM: KCl 4.7, CaCl2 2.3, KH2PO4 1.2, MgSO4 1.2, NaCl 118, and NaHCO3 25), pH 7.4 containing 11 mM glucose and it was continuously gassed with 95% O2:5% CO2. The buffer was also continuously filtered in-line (initial 8 μm, following 0.4 μm cellulose acetate filters; Sartorius, Germany). The temperature of the entire perfusion apparatus was maintained by water jackets and buffer temperature was continuously monitored and adjusted to maintain hearts at 37° C. throughout perfusion.
A modified 24 g plastic intravenous cannula (Becton Dickson, Utah, USA) was inserted into the left ventricle via the apex of the heart using the normal introducer-needle. This cannula was subsequently attached to a SP844 piezo-electric pressure transducer (AD Instruments) to continuously monitor left ventricular pressure. Aortic pressure was continuously monitored through a side arm of the aortic cannula with a pressure transducer (Statham Model P23XL, Gould Inc., CA, USA). The heart was paced (Digitimer Ltd, Heredfordshire, England) at a rate of 300 bpm by means of electrodes attached to the aortic and pulmonary vein cannulae using supra-threshold voltages with pulses of 5-ms duration from the square wave generator.

diabetic Wistar rats = settings: six months of treatment
[7] = diabetic and nondiabetic animals
[8] = STZ/D7 (diabetic, trientine weeks 7-13)
[9] = Sham/D7 (non-diabetic, trientine weeks 7-13)

Compound: N=C(N)NN [aminoguanidine]
- aortic impedance (diabetic rats): decreases
- carotid artery compliance (diabetic rats): increased
- myocardial compliance (diabetic rats): prevented the decreased myocardial compliance

Compound: NCCNCCNCCN [trientine, N,N′-Bis(2-aminoethyl)-1,2-ethanedi-amine]
- serum content or renal clearance of iron, effect of drug [1, 7]: no effect
- serum copper content, drug versus saline [1, 7]: no significant difference
- renal clearance of copper, drug versus saline ([1]; diabetic animals): significant increase
- Renal clearance Cu ([1]; diabetic, n = 6): *28.5 ± 4.8 μl · min^−1
- Renal clearance Fe ([1]; diabetic, n = 6): 0.25 ± 0.07 µL/min
- Serum Cu ([1]; diabetic, n = 6): 7.56 ± 0.06 μg · μl^−1 × 10^−4
- Serum Fe ([1]; diabetic, n = 6): 35.7 ± 7.98 μg · μl^−1 × 10^−4
- increase in renal clearance of copper, drug versus saline ([1]; nondiabetic animals (P=0.056)): not statistically significant
- Renal clearance Cu ([1]; nondiabetic, n = 4): 19.9 ± 6.4 µL/min
- Renal clearance Fe ([1]; nondiabetic, n = 4): 0.46 ± 0.22 µL/min
- Serum Cu ([1]; nondiabetic, n = 4): 7.11 ± 0.41 μg · μl^−1 × 10^−4
- Serum Fe ([1]; nondiabetic, n = 4): 33.6 ± 1.62 μg · μl^−1 × 10^−4
- copper excretion versus saline, mixed linear model ([2]; all dose levels): significantly higher excretion of copper
- greater iron excretion per gram of body weight in diabetic than nondiabetic animals ([2]; animals receiving trientine): not evident
- total iron excretion versus saline ([2]; both diabetic and nondiabetic animals): not different
- total copper excreted over the entire duration of the experiment versus saline controls ([2]; both nondiabetic and diabetic animals): significantly increased
- increase of urine excretion versus equivalent volume of saline ([2]; diabetic animals, 100 mg·kg^−1 i.v.): not seen
- iron excretion (μg), saline versus drug ([2]; diabetic animals, at most doses): greater in animals administered saline than in those administered drug
- diabetes x drug interaction effect on copper excretion, mixed linear model ([2]; dose levels of 1.0 mg·kg^−1 and above): significant
- total copper per gram of body weight, diabetic versus nondiabetic animals receiving drug ([2]; entire experiment): excreted more total copper per gram of body weight
- copper excretion per gram of body weight, diabetic versus nondiabetic animals ([2]; in response to each dose of drug): significantly greater copper excretion per gram of body weight
- greater total iron excretion per gram of body weight in diabetic than nondiabetic animals ([2]; in response to trientine): not seen
- urine excretion versus equivalent volume of saline ([2]; nondiabetic animals, 100 mg·kg^−1 i.v.): increased urine excretion
- Heart weight [3, 8]: 1.18 ± 0.24 g
- Heart weight (g)/BW (g) [3, 8]: 0.0041 ± 0.0005^
- Left Ventricular wall thickness [3, 8]: 3.79 ± 0.52 mm
- Left Ventricular wall thickness per BW [3, 8]: 0.0127 ± 0.0027^ (mm)/(g)
- Heart weight [3, 9]: 1.58 ± 0.05 g
- Heart weight (g)/BW (g) [3, 9]: 0.0028 ± 0.0001
- Left Ventricular wall thickness [3, 9]: 4.03 ± 0.1 mm
- Left Ventricular wall thickness per BW [3, 9]: 0.0072 ± 0.0003 (mm)/(g)
- heart:body weight ratio, treated versus untreated diabetic animals ([3]; diabetic animals, trientine weeks 7-13): small but significant improvement
- ventricular wall thickness:bodyweight ratio, treated versus non-treated diabetics ([3]; did not reach significance): trend toward improved
- blood glucose profile, treated versus untreated comparison group ([3]; either treated group (STZ/D7, Sham/D7), p=ns): no difference
- adverse cardiovascular effects ([4]; after acute administration, 0.1-100 mg·kg^−1 i.v.): no adverse cardiovascular effects
- body temperature and oxygen saturation ([4]; all animals throughout the experiment): remained stable
- time for MAP to return to pre-dose levels ([4]; highest dose (100 mg·kg^−1 i.v.)): ≤ 10 min
- maximum decrease in MAP ([4]; highest dose (100 mg·kg^−1 i.v.), for the 2 min following administration): 19±4 mm Hg
- MAP and HR during infusion ([4]; i.v. hourly increasing doses, all doses except the highest, diabetic and nondiabetic rats): no effect
- effect of drug on cardiac content of iron and copper ([5]; acute i.v. administration): nor any effect of drug
- content of copper in cardiac tissue, diabetic versus nondiabetic animals ([5]; animals receiving saline or trientine): no significant difference
- Cu content of heart tissue ([5]; diabetic): 24.7 ± 1.5 μg · g^−1 dry tissue
- Fe content of heart tissue ([5]; diabetic): 186 ± 46 μg · g^−1 dry tissue
- Cu content of heart tissue ([5]; nondiabetic): 27.1 ± 1.0 μg · g^−1 dry tissue
- Fe content of heart tissue ([5]; nondiabetic): 235 ± 39 μg · g^−1 dry tissue
- Percentage functioning at each afterload ([6]; STZ/D7 (diabetic, trientine weeks 7-13), afterload 55.9 mmHg): 100%
- Number surviving (aortic flow >0 mls/min) ([6]; STZ/D7 (diabetic, trientine weeks 7-13, N 8), afterload 55.9 mmHg): 8
- Number surviving (aortic flow >0 mls/min) ([6]; STZ/D7, afterload 61.8 mmHg): 8
- Percentage functioning at each afterload ([6]; STZ/D7, afterload 61.8 mmHg): 100%
- Number surviving (aortic flow >0 mls/min) ([6]; STZ/D7, afterload 67.7 mmHg): 8
- Percentage functioning at each afterload ([6]; STZ/D7, afterload 67.7 mmHg): 100%
- Number surviving (aortic flow >0 mls/min) ([6]; STZ/D7, afterload 71.4 mmHg): 8
- Percentage functioning at each afterload ([6]; STZ/D7, afterload 71.4 mmHg): 100%
- Number surviving (aortic flow >0 mls/min) ([6]; STZ/D7, afterload 77.2 mmHg): 8
- Percentage functioning at each afterload ([6]; STZ/D7, afterload 77.2 mmHg): 100%
- Number surviving (aortic flow >0 mls/min) ([6]; STZ/D7, afterload 83.1 mmHg): 8
- Percentage functioning at each afterload ([6]; STZ/D7, afterload 83.1 mmHg): 100%
- Number surviving (aortic flow >0 mls/min) ([6]; STZ/D7, afterload 88.3 mmHg): 7
- Percentage functioning at each afterload ([6]; STZ/D7, afterload 88.3 mmHg): 88%
- Number surviving (aortic flow >0 mls/min) ([6]; STZ/D7, afterload 94.9 mmHg): 6
- Percentage functioning at each afterload ([6]; STZ/D7, afterload 94.9 mmHg): 75%
- Number surviving (aortic flow >0 mls/min) ([6]; STZ/D7, afterload 100.8 mmHg): 5
- Percentage functioning at each afterload ([6]; STZ/D7, afterload 100.8 mmHg): 63%
- Number surviving (aortic flow >0 mls/min) ([6]; STZ/D7, afterload 106.7 mmHg): 1
- Percentage functioning at each afterload ([6]; STZ/D7, afterload 106.7 mmHg): 13%
- Percentage functioning at each afterload ([6]; Sham/D7 (non-diabetic, trientine weeks 7-13), afterload 55.9 mmHg): 100%
- Number surviving (aortic flow >0 mls/min) ([6]; Sham/D7 (non-diabetic, trientine weeks 7-13, N 11), afterload 55.9 mmHg): 11
- Number surviving (aortic flow >0 mls/min) ([6]; Sham/D7, afterload 61.8 mmHg): 11
- Percentage functioning at each afterload ([6]; Sham/D7, afterload 61.8 mmHg): 100%
- Number surviving (aortic flow >0 mls/min) ([6]; Sham/D7, afterload 67.7 mmHg): 11
- Percentage functioning at each afterload ([6]; Sham/D7, afterload 67.7 mmHg): 100%
- Number surviving (aortic flow >0 mls/min) ([6]; Sham/D7, afterload 71.4 mmHg): 11
- Percentage functioning at each afterload ([6]; Sham/D7, afterload 71.4 mmHg): 100%
- Number surviving (aortic flow >0 mls/min) ([6]; Sham/D7, afterload 77.2 mmHg): 11
- Percentage functioning at each afterload ([6]; Sham/D7, afterload 77.2 mmHg): 100%
- Number surviving (aortic flow >0 mls/min) ([6]; Sham/D7, afterload 83.1 mmHg): 11
- Percentage functioning at each afterload ([6]; Sham/D7, afterload 83.1 mmHg): 100%
- Number surviving (aortic flow >0 mls/min) ([6]; Sham/D7, afterload 88.3 mmHg): 11
- Percentage functioning at each afterload ([6]; Sham/D7, afterload 88.3 mmHg): 100%
- Number surviving (aortic flow >0 mls/min) ([6]; Sham/D7, afterload 94.9 mmHg): 11
- Percentage functioning at each afterload ([6]; Sham/D7, afterload 94.9 mmHg): 100%
- Number surviving (aortic flow >0 mls/min) ([6]; Sham/D7, afterload 100.8 mmHg): 11
- Percentage functioning at each afterload ([6]; Sham/D7, afterload 100.8 mmHg): 100%
- Number surviving (aortic flow >0 mls/min) ([6]; Sham/D7, afterload 106.7 mmHg): 9
- Percentage functioning at each afterload ([6]; Sham/D7, afterload 106.7 mmHg): 82%
- cardiac output ([6]; drug treated diabetic group, pre-load increased (5-20 cm H2O), after-load constant): restored to Sham values
- aortic and absolute coronary flows ([6]; drug treated diabetic group, pre-load increased, after-load constant): improved
- indicators for ventricular contraction and relaxation (+dP/dt, −dP/dt) ([6]; drug treated versus untreated diabetic group): significantly improved
- heart's ability to function at higher after-loads ([6]; drug treated versus untreated diabetic group, constant pre-load): greatly improved
- adverse effects on cardiac performance ([6]; drug treatment of normal animals (Sham/D7)): no adverse effects
- cardiac function overall ([6]; oral trientine for 7 weeks, Wistar rats with established diabetes of 6 weeks duration): global improvement in cardiac function
- trientine treated diabetic hearts still functioning ([6]; when 50% of the untreated diabetic hearts had failed): about 90%
- protection of hearts from development of diabetic damage (cardiomyopathy) as judged by histology (diabetic Wistar rats): appears to protect
